In general, CC50 refers to the concentration that lowers cell viability or growth by half. Broadly, the EC50 is the concentration giving half of the maximal effect.

Where a SMILES comes first, the peptide text is derived from it. Bridges are numbered along the chain shown (N, C = ends). [ ]: non-standard residue; d: D form. 2Nal = N[C@@H](Cc1ccc2ccccc2c1)C(=O)O; Cit = NC(=O)NCCC[C@H](N)C(=O)O

Assay [1] deals with MT4. Briefly: Compound was tested for reduction of the viability of mock infected MT-4 cell in test-I. The class given is functional. The conditions noted are these: Homo sapiens.
Assay [2] deals with MT4. Description: Compound was tested for reduction of the viability of mock infected MT-4 cell in test-II. The assay is classed as functional. The conditions noted are these: Homo sapiens.
A short description of assay [3]: Ratio of cytotoxic concentration (CC50) in test-I to that of EC50 of compound. The assay is classed as functional, Homo sapiens.
Assay [4] is described as follows: Ratio of cytotoxic concentration (CC50) in test-II to that of EC50 of compound. The class given is functional, Homo sapiens.
Assay [5] relates to Human immunodeficiency virus 1. Description: Inhibition of HIV-induced cytopathogenicity in MT-4 cell (ZIDOVUDINE control). The class given is functional, organism-based. The conditions noted are these: Human immunodeficiency virus 1, MT4. A general note: Protection from cytopathic effect is a common read-out in antiviral testing.
Assay [6] in a line: Ratio of cytotoxic concentration (CC50) in test-I to that of EC50 of compound; Not tested. The assay is classed as functional.

For the compound `Cc1cn([C@H]2C[C@H](N=[N+]=[N-])[C@@H](CO)O2)c(=O)[nH]c1=O` [ZIDOVUDINE], the CC50 in assay [1] was 190 µM; in assay [2], less than 20 µM. In addition, the results for the Ratio in assay [3] and in assay [4] were 4000 and less than 410, respectively. The same compound gave an EC50 in assay [5] of 0.048 µM.
As for `NCCCC[C@@H]1NC(=O)[C@H](CCCNC(N)=O)NC(=O)[C@H](Cc2ccc(O)cc2)NC(=O)[C@@H](NC(=O)[C@H](Cc2ccc3ccccc3c2)NC(=O)[C@H](CCCN=C(N)N)NC(=O)[C@@H](N)CCCN=C(N)N)CSSC[C@@H](C(=O)N[C@@H](CCCN=C(N)N)C(=O)O)NC(=O)[C@H](CCCNC(N)=O)NC(=O)[C@H](CCCN=C(N)N)NC(=O)[C@H](Cc2ccc(O)cc2)NC(=O)[C@@H]2CCCN2C(=O)[C@@H](CCCCN)NC1=O`, the 50% cytotoxic concentration (CC50) in assay [1] is greater than 80 µM; in assay [2], 310 µM. In addition, the results for the Ratio in assay [3] and in assay [4] were greater than 29000 and 160000, respectively.
With `NCCCC[C@H]1NC(=O)[C@H](CCCNC(N)=O)NC(=O)[C@H](CCCN=C(N)N)NC(=O)[C@H](Cc2ccc(O)cc2)NC(=O)[C@@H](NC(=O)[C@H](Cc2ccc3ccccc3c2)NC(=O)[C@H](CCCN=C(N)N)NC(=O)[C@@H](N)CCCN=C(N)N)CSSC[C@@H](C(=O)N[C@@H](CCCN=C(N)N)C(=O)O)NC(=O)[C@H](CCCNC(N)=O)NC(=O)[C@H](CCCN=C(N)N)NC(=O)[C@H](Cc2ccc(O)cc2)NC(=O)[C@@H]2CCCN2C1=O`, the CC50 in assay [1] is greater than 80 µM; in assay [2], 270 µM. The Ratio is recorded as greater than 5000 in assay [3] and greater than 16000 in assay [4].
For `NCCCC[C@@H]1NC(=O)[C@H](CCCN=C(N)N)NC(=O)[C@H](Cc2ccc(O)cc2)NC(=O)[C@@H](NC(=O)[C@H](Cc2ccc3ccccc3c2)NC(=O)[C@H](CCCNC(N)=O)NC(=O)[C@@H](N)CCCN=C(N)N)CSSC[C@@H](C(=O)N[C@@H](CCCN=C(N)N)C(=O)O)NC(=O)[C@H](CCCNC(N)=O)NC(=O)[C@H](CCCN=C(N)N)NC(=O)[C@H](Cc2ccc(O)cc2)NC(=O)[C@@H]2CCCN2C(=O)[C@@H](CCCCN)NC1=O`, the CC50 in assay [1] was greater than 80 µM; in assay [2] it was 260 µM. The results for the Ratio in assay [3] and in assay [4] were greater than 180 and 570, respectively.
As to `NCCCC[C@@H]1NC(=O)[C@H](CCCN=C(N)N)NC(=O)[C@H](Cc2ccc(O)cc2)NC(=O)[C@@H](NC(=O)[C@H](Cc2ccc3ccccc3c2)NC(=O)[C@H](CCCN=C(N)N)NC(=O)[C@@H](N)CCCNC(N)=O)CSSC[C@@H](C(=O)N[C@@H](CCCN=C(N)N)C(=O)O)NC(=O)[C@H](CCCNC(N)=O)NC(=O)[C@H](CCCN=C(N)N)NC(=O)[C@H](Cc2ccc(O)cc2)NC(=O)[C@@H]2CCCN2C(=O)[C@@H](CCCCN)NC1=O`, the values for the CC50 in assay [1] and in assay [2] were greater than 80 µM and 280 µM, respectively. The Ratio was greater than 5300 in assay [3] and 18000 in assay [4].
For the compound `NCCCC[C@@H]1NC(=O)[C@H](CCCN=C(N)N)NC(=O)[C@H](Cc2ccc(O)cc2)NC(=O)[C@@H](NC(=O)[C@H](Cc2ccc3ccccc3c2)NC(=O)[C@H](CCCN=C(N)N)NC(=O)[C@@H](N)CCCN=C(N)N)CSSC[C@@H](C(=O)N[C@@H](CCCN=C(N)N)C(=O)O)NC(=O)[C@H](CCCNC(N)=O)NC(=O)[C@H](CCCN=C(N)N)NC(=O)[C@H](Cc2ccc(O)cc2)NC(=O)[C@@H]2CCCN2C(=O)[C@@H](CCCCN)NC1=O` (H-RR[2Nal]CYRK[dK]PYR[Cit]CR-OH; disulfide 4-13), the results for the CC50 in assay [1] and in assay [2] were greater than 1 µM and 96 µM, respectively. The Ratio is >>300 in assay [3] and 29000 in assay [4].
`NCCCC[C@@H]1NC(=O)[C@H](CCCN=C(N)N)NC(=O)[C@H](Cc2ccc(O)cc2)NC(=O)[C@@H](NC(=O)[C@H](Cc2ccc3ccccc3c2)NC(=O)[C@H](CCCN=C(N)N)NC(=O)[C@@H](N)CCCN=C(N)N)CSSC[C@@H](C(=O)N[C@@H](CCCN=C(N)N)C(=O)O)NC(=O)[C@H](CCCNC(N)=O)NC(=O)[C@H](CCCNC(N)=O)NC(=O)[C@H](Cc2ccc(O)cc2)NC(=O)[C@@H]2CCCN2C(=O)[C@@H](CCCCN)NC1=O`: the CC50 in assay [1] is greater than 80 µM; in assay [2] it was 310 µM. The Ratio is on record as greater than 5300 in assay [3] and 20000 in assay [4].
For `NCCCC[C@@H]1NC(=O)[C@H](CCCN=C(N)N)NC(=O)[C@H](Cc2ccc(O)cc2)NC(=O)[C@@H](NC(=O)[C@H](Cc2c[nH]c3ccccc23)NC(=O)[C@H](CCCN=C(N)N)NC(=O)[C@@H](N)CCCN=C(N)N)CSSC[C@@H](C(=O)N[C@@H](CCCN=C(N)N)C(=O)O)NC(=O)[C@H](CCCNC(N)=O)NC(=O)[C@H](CCCN=C(N)N)NC(=O)[C@H](Cc2ccc(O)cc2)NC(=O)[C@@H]2CCCN2C(=O)[C@@H](CCCCN)NC1=O`, the CC50 in assay [1] is greater than 1 µM; in assay [2] it was 190 µM. The values for the Ratio in assay [3] and in assay [4] were >>120 and 23000, respectively.
For the compound `NCCCC[C@@H]1NC(=O)[C@H](CCCN=C(N)N)NC(=O)[C@H](Cc2ccc(O)cc2)NC(=O)[C@@H](NC(=O)[C@H](Cc2ccc3ccccc3c2)NC(=O)[C@H](CCCN=C(N)N)NC(=O)[C@@H](N)CCCN=C(N)N)CSSC[C@@H](C(=O)N[C@@H](CCCNC(N)=O)C(=O)O)NC(=O)[C@H](CCCNC(N)=O)NC(=O)[C@H](CCCN=C(N)N)NC(=O)[C@H](Cc2ccc(O)cc2)NC(=O)[C@@H]2CCCN2C(=O)[C@@H](CCCCN)NC1=O`, the half-maximal cytotoxic concentration (CC50) in assay [1] is greater than 40 µM; in assay [2] it was 180 µM. Moreover, the Ratio in assay [3] is given as greater than 220; in assay [4] it was 200.
For `NCCCC[C@@H]1NC(=O)[C@H](CCCN=C(N)N)NC(=O)[C@H](Cc2ccc(O)cc2)NC(=O)[C@@H](NC(=O)[C@H](Cc2ccc3ccccc3c2)NC(=O)[C@H](CCCN=C(N)N)NC(=O)[C@@H](N)CCCN=C(N)N)CSSC[C@@H](C(=O)N[C@@H](CCCN=C(N)N)C(=O)O)NC(=O)[C@H](CCCNC(N)=O)NC(=O)[C@H](CCCN=C(N)N)NC(=O)[C@H](Cc2ccc(O)cc2)NC(=O)[C@@H]2CCCN2C(=O)[C@@H](CCCNC(N)=O)NC1=O`, in that order: greater than 80 µM, 280 µM, greater than 20000 and 69000.
As to `C[C@@H]1NC(=O)[C@@H](NC(=O)[C@H](Cc2ccc3ccccc3c2)NC(=O)[C@H](CCCN=C(N)N)NC(=O)[C@@H](N)CCCN=C(N)N)CSSC[C@@H](C(=O)N[C@@H](CCCN=C(N)N)C(=O)O)NC(=O)[C@H](CCCNC(N)=O)NC(=O)[C@H](CCCN=C(N)N)NC(=O)[C@H](Cc2ccc(O)cc2)NC(=O)[C@@H]2CCCN2C(=O)[C@@H](CCCCN)NC(=O)[C@H](CCCCN)NC(=O)[C@H](CCCN=C(N)N)NC1=O`, in assay [1], the CC50 is greater than 80 µM. Further, the Ratio in assay [3] was greater than 230.
As for `C[C@@H]1NC(=O)[C@H](Cc2ccc(O)cc2)NC(=O)[C@@H]2CCCN2C(=O)[C@@H](CCCCN)NC(=O)[C@H](CCCCN)NC(=O)[C@H](CCCN=C(N)N)NC(=O)[C@H](Cc2ccc(O)cc2)NC(=O)[C@@H](NC(=O)[C@H](Cc2ccc3ccccc3c2)NC(=O)[C@H](CCCN=C(N)N)NC(=O)[C@@H](N)CCCN=C(N)N)CSSC[C@@H](C(=O)N[C@@H](CCCN=C(N)N)C(=O)O)NC(=O)[C@H](CCCNC(N)=O)NC1=O`, the CC50 in assay [1] is greater than 80 µM. In addition, in assay [3], the Ratio was greater than 4800.
`C[C@@H]1NC(=O)[C@H](CCCN=C(N)N)NC(=O)[C@H](Cc2ccc(O)cc2)NC(=O)[C@@H](NC(=O)[C@H](Cc2ccc3ccccc3c2)NC(=O)[C@H](CCCN=C(N)N)NC(=O)[C@@H](N)CCCN=C(N)N)CSSC[C@@H](C(=O)N[C@@H](CCCN=C(N)N)C(=O)O)NC(=O)[C@H](CCCNC(N)=O)NC(=O)[C@H](CCCN=C(N)N)NC(=O)[C@H](Cc2ccc(O)cc2)NC(=O)[C@@H]2CCCN2C(=O)[C@@H](CCCCN)NC1=O` showed a half-maximal cytotoxic concentration (CC50) in assay [1] greater than 80 µM. For the same compound, the Ratio in assay [3] is on record as greater than 1800.
Consider `C[C@@H]1NC(=O)[C@H](Cc2ccc(O)cc2)NC(=O)[C@@H](NC(=O)[C@H](Cc2ccc3ccccc3c2)NC(=O)[C@H](CCCN=C(N)N)NC(=O)[C@@H](N)CCCN=C(N)N)CSSC[C@@H](C(=O)N[C@@H](CCCN=C(N)N)C(=O)O)NC(=O)[C@H](CCCNC(N)=O)NC(=O)[C@H](CCCN=C(N)N)NC(=O)[C@H](Cc2ccc(O)cc2)NC(=O)[C@@H]2CCCN2C(=O)[C@@H](CCCCN)NC(=O)[C@H](CCCCN)NC1=O`, for which, in assay [1], the cytotoxic concentration (CC50) was greater than 40 µM. The Ratio in assay [6] is on record as greater than 4500.
For the compound `CC(N)C(=O)N[C@@H](CCCN=C(N)N)C(=O)N[C@@H](Cc1ccc2ccccc2c1)C(=O)N[C@H]1CSSC[C@@H](C(=O)N[C@@H](CCCN=C(N)N)C(=O)O)NC(=O)[C@H](CCCNC(N)=O)NC(=O)[C@H](CCCN=C(N)N)NC(=O)[C@H](Cc2ccc(O)cc2)NC(=O)[C@@H]2CCCN2C(=O)[C@@H](CCCCN)NC(=O)[C@H](CCCCN)NC(=O)[C@H](CCCN=C(N)N)NC(=O)[C@H](Cc2ccc(O)cc2)NC1=O` (stereo partly specified), in assay [1], the CC50 is greater than 40 µM. The Ratio in assay [3] is reported as greater than 750.

These data come from ChEMBL document CHEMBL1132828, “Pharmacophore identification of a specific CXCR4 inhibitor, T140, leads to development of effective anti-HIV agents with very high selectivity indexes” (Bioorg Med Chem Lett, 2000).
